Results reported in patent US4629567A, “Alpha-1-antiprotease purification” (SmithKline-RIT, priority 1986, dated 1986).

Experiments:
trypsin [1] = test: standard trypsin inhibition assay (microtest with chromogenic substrate S2444); format: biochemical; details: fixed amount of trypsin, 20 min at 37° C.
trypsin [2] = test: as above; format: biochemical; details: fixed amount of trypsin, 20 min at 37° C.; remark: listed apart in the source
Procedure: The activity of the four AAT proteins purified by the method of the invention was compared to that of a standard AAT preparation derived from serum in a standard trypsin inhibition assay. The assay measures the inhibitory capacity of α1 -antitrypsin toward trypsin. It consists of a microtest using the chromogenic substrate S2444 (L-pyroglutamylglycyl-L-arginine, p-nitroanilide hydrochloride, Kabi Diagnostica, Stockholm, Sweden). The polystyrene microtest plates were incubated for 1 hr with 1% bovine serum albumin and washed extensively with distilled water. α1 -antitrypsin at various concentrations was incubated with a fixed amount of trypsin for 20 min at 37° C. in a 200- 1 final reaction volume of 0.1 M Tris-HCl pH 8.2/0.15 M NaCl/0.01 M EDTA/0.5% polyethylene glycol, Mr 6000). Samples were cooled slowly at room temperature and then exposed to the chromogenic substrate (20 μl of aqueous solution of 0.003 M S2444). After 5 min at room temperature, the reaction was stopped with 50 μl of 50% acetic acid.
Absorbance was read at 405 nm in a micro-ELISA automatic reader (Dynatech AM120). Calibration curves were determined for both trypsin and α1 -antitrypsin. Samples to be assayed were diluted serially in reaction buffer.

| Substance | Optical density (A410) (trypsin [1]; AAT concentration 0.25 ug/ml) | Optical density (A410) (trypsin [1]; AAT concentration 1 ug/ml) | Optical density (A410) (trypsin [1]; AAT concentration 2 ug/ml) | % inhibition of trypsin activity (trypsin [2]; AAT concentration 0.25 ug/ml) [%] | % inhibition of trypsin activity (trypsin [2]; AAT concentration 1 ug/ml) [%] | % inhibition of trypsin activity (trypsin [2]; AAT concentration 2 ug/ml) [%] | Optical density (A410) (trypsin [1]; AAT concentration 0.50 ug/ml) | Optical density (A410) (trypsin [1]; AAT concentration 1.50 ug/ml) | % inhibition of trypsin activity (trypsin [2]; AAT concentration 0.50 ug/ml) [%] | % inhibition of trypsin activity (trypsin [2]; AAT concentration 1.50 ug/ml) [%] | Optical density (A410) (trypsin [1]; AAT concentration 2.50 ug/ml) | Optical density (A410) (trypsin [1]; AAT concentration 3.50 ug/ml) | Optical density (A410) (trypsin [1]; AAT concentration 4.50 ug/ml) | % inhibition of trypsin activity (trypsin [2]; AAT concentration 2.50 ug/ml) [%] | % inhibition of trypsin activity (trypsin [2]; AAT concentration 3.50 ug/ml) [%] | % inhibition of trypsin activity (trypsin [2]; AAT concentration 4.50 ug/ml) [%] |
| --- | --- | --- | --- | --- | --- | --- | --- | --- | --- | --- | --- | --- | --- | --- | --- | --- |
| 4: AAT from human plasma, purified by the method of the invention [Sample 4] | 0.74 | 0.48 | 0.06 | 17 | 46 | 93 | – | – | – | – | – | – | – | – | – | – |
| 3: mature AAT (having N-met in place of the N-glu) expressed in yeast [Sample 3] | 0.95 | – | – | 7 | – | – | 0.84 | 0.54 | 17 | 47 | – | – | – | – | – | – |
| standard: standard AAT preparation derived from serum | – | .63 | .32 | – | 33 | 66 | .78 | – | 11 | – | .24 | .17 | .1 | 74 | 82 | 90 |
